Tests used:
Sprague–Dawley rats [1] = assay: Dose-range finding study in rats, clinical chemistry; assay type: in vivo, rat; settings: for ALT (GPT) / Albumin / Albumin/ globulin ratio / Alkaline phosphatase / Bile acids / Bilirubin total / Calcium / Chloride / Cholesterol / Creatine kinase / Creatinine / GLDH / Globulin / Glucose / Inorganic phosphate / Potassium / Sodium / Total protein / Triglycerides / Urea (BUN): day 8
Procedure: (§1) TPT-004 was formulated in 0.5% (w/v) CMC-Na in water and administered by oral gavage (PO) twice daily (b.i.d.) with a 12 h interval to the treatment groups (3 male and 3 female Sprague–Dawley rats each) for 8 days (15 successive applications). Rats were dosed with 10, 45, and 200 mg/kg, i.e., daily doses of 20, 90, and 400 mg/kg. In addition, a control group was dosed at the same frequency as the vehicle (0.5% CMC-Na).
(§2) A blood sample of 100 μL was obtained from each rat by puncturing one of the lateral tail veins under short isoflurane anesthesia. Blood was collected in tubes containing lithium heparin and gently mixed. After centrifugation (10 min at 3000g, 4 °C), plasma was separated and stored at −20 °C until LC-MS analysis. In addition, on day 8, the rats were exsanguinated by cardiac puncture under isoflurane anesthesia. A volume of 100 μL of blood (K3-EDTA) was used for immediate cell blood count, while the rest of the blood was mixed with lithium heparin and centrifuged to generate plasma for clinical chemistry analysis.

Sprague–Dawley rats [2] = assay: Dose-range finding study in rats, hematology; assay type: in vivo, rat; parameters: red cell distribution width (RDW): unit not given here; settings: for ERY / HCT / HGB / LEU / LYM / LYM (%) / MCH / MCHC / MCV / MON / MON (%) / MPV / NEU / NEU (%) / PCT / PDWc / PDWs / PLT / RDWc / RDWs: day 8
Procedure: as §1, §2

[3] = two rodent species; previously published pharmacokinetic data; cited from earlier work
[4] = 10, 45, or 200 mg/kg BID PO, 8 days

## CCn1c(=O)[nH]c(=O)c2c1nc(Cc1cn3cc(C)sc3n1)n2CC1COC1 [TPT-004]
Sprague–Dawley rats [1]; 10 mg/kg PO BID
  ALT (GPT): 49 U/L
  Albumin: 31 g/L
  Albumin/ globulin ratio: 1.33
  Alkaline phosphatase: 402 U/L
  Bile acids: 6.3 µmol/L
  Bilirubin total: 1.7 µmol/L
  Calcium: 2.6 mmol/L
  Chloride: 101 mmol/L
  Cholesterol: 2.25 mmol/L
  Creatine kinase: 406 U/L
  Creatinine: 24 µmol/L
  GLDH: 7 U/L
  Globulin: 23 g/L
  Glucose: 11.2 mmol/L
  Inorganic phosphate: 2.3 mmol/L
  Potassium: 4.7 mmol/L
  Sodium: 143 mmol/L
  Total protein: 54 g/L
  Triglycerides: 1.2 mmol/L
  Urea (BUN): 6.4 mmol/L
Sprague–Dawley rats [1]; 45 mg/kg PO BID
  ALT (GPT): 52 U/L
  Albumin: 30 g/L
  Albumin/ globulin ratio: 1.34
  Alkaline phosphatase: 434 U/L
  Bile acids: 16.6 µmol/L
  Bilirubin total: 1.7 µmol/L
  Calcium: 2.7 mmol/L
  Chloride: 101 mmol/L
  Cholesterol: 2.5 mmol/L
  Creatine kinase: 415 U/L
  Creatinine: 26 µmol/L
  GLDH: 6 U/L
  Globulin: 23 g/L
  Glucose: 12.3 mmol/L
  Inorganic phosphate: 2.4 mmol/L
  Potassium: 4.7 mmol/L
  Sodium: 142 mmol/L
  Total protein: 53 g/L
  Triglycerides: 1.7 mmol/L
  Urea (BUN): 6.0 mmol/L
Sprague–Dawley rats [1]; 200 mg/kg PO BID
  ALT (GPT): 67 U/L
  Albumin: 30 g/L
  Albumin/ globulin ratio: 1.32
  Alkaline phosphatase: 313 U/L
  Bile acids: 20.4 µmol/L
  Bilirubin total: 1.7 µmol/L
  Calcium: 2.6 mmol/L
  Chloride: 101 mmol/L
  Cholesterol: 2.6 mmol/L
  Creatine kinase: 321 U/L
  Creatinine: 24 µmol/L
  GLDH: 7 U/L
  Globulin: 23 g/L
  Glucose: 13.5 mmol/L
  Inorganic phosphate: 2.4 mmol/L
  Potassium: 4.9 mmol/L
  Sodium: 143 mmol/L
  Total protein: 53 g/L
  Triglycerides: 1.4 mmol/L
  Urea (BUN): 7.0 mmol/L
Sprague–Dawley rats [1]; [4]
  clinical chemistry parameters, overall: no relevant difference
Sprague–Dawley rats [2]; 10 mg/kg PO BID
  ERY: 8.15e+12 L⁻¹
  HCT: 49.64%
  HGB: 13.9 g/dL
  LEU: 1.308e+10 L⁻¹
  LYM: 1.091e+10 L⁻¹
  LYM (%): 82.8%
  MCH: 17.1 pg
  MCHC: 28.0 g/dL
  MCV: 61 fL
  MON: 5.8e+08 L⁻¹
  MON (%): 4.0%
  MPV: 8.2 fL
  NEU: 1.59e+09 L⁻¹
  NEU (%): 13.3%
  PCT: 0.15%
  PDWc: 33.7%
  PDWs: 12.3 fL
  PLT: 1.69e+11 L⁻¹
  RDWc: 16.4%
  RDWs: 37.6 fL
Sprague–Dawley rats [2]; 45 mg/kg PO BID
  ERY: 8.12e+12 L⁻¹
  HCT: 48.67%
  HGB: 14.0 g/dL
  LEU: 1.748e+10 L⁻¹
  LYM: 1.446e+10 L⁻¹
  LYM (%): 82.7%
  MCH: 17.3 pg
  MCHC: 28.8 g/dL
  MCV: 60 fL
  MON: 1.07e+09 L⁻¹
  MON (%): 6.2%
  MPV: 8.3 fL
  NEU: 1.95e+09 L⁻¹
  NEU (%): 11.1%
  PCT: 0.08%
  PDWc: 36.1%
  PDWs: 13.9 fL
  PLT: 1.04e+11 L⁻¹
  RDWc: 17.2%
  RDWs: 38.7 fL
Sprague–Dawley rats [2]; 200 mg/kg BID, vehicle 16.4 ± 0.8, p = 0.0109
  red cell distribution width (RDW): 19.3 ± 1.6
Sprague–Dawley rats [2]; 200 mg/kg PO BID
  ERY: 8.03e+12 L⁻¹
  HCT: 45.70%
  HGB: 13.1 g/dL
  LEU: 1.534e+10 L⁻¹
  LYM: 1.263e+10 L⁻¹
  LYM (%): 82.9%
  MCH: 16.4 pg
  MCHC: 28.7 g/dL
  MCV: 57 fL
  MON: 7.4e+08 L⁻¹
  MON (%): 4.8%
  MPV: 8.3 fL
  NEU: 1.97e+09 L⁻¹
  NEU (%): 12.3%
  PCT: 0.14%
  PDWc: 35.8%
  PDWs: 13.7 fL
  PLT: 1.79e+11 L⁻¹
  RDWc: 19.3%
  RDWs: 40.8 fL
Sprague–Dawley rats [2]; [4]
  hematology parameters, overall: did not alter the hematology parameters
  number of platelets (PLT), differences to control: these differences were not significant
[3]
  blood-brain barrier penetration: exceptionally low blood-brain barrier penetration

Source: publication PMC12171880, “Selectivity and Safety Characterization of a Xanthine–Imidazothiazole Lead Structure: a Novel Tryptophan Hydroxylase Inhibitor of Peripheral Serotonin Synthesis” (ACS Pharmacology & Translational Science, 2025)
